Experimental data published in patent US9187415B2, “Sulfonamides as HIV protease inhibitors” (Merck Canada Inc., priority 2010, dated 2015).
Like-named read-outs stand apart in the source and are kept apart here.

Columns and labels:
[1] = target: T1, HIV-1 protease (wild type) (Human immunodeficiency virus type 1 group M subtype B, UniProt P04585); experiment: Protease Inhibition Assay (Pepcleave), inhibition of microbial expressed HIV protease; type: biochemical
T1 construct: made in house; host or cells: Escherichia coli
Procedure: Assay for Inhibition of Microbial Expressed HIV Protease
Inhibition studies of the reaction of the protease (which was expressed in Eschericia coli) with a peptide substrate [Val-Ser-Gln-Asn-(betanaphtyl)Ala-Pro-Ile-Val]. The inhibitor is first preincubated with the HIV-1 protease (wild type) enzyme in assay buffer (50 mM sodium acetate, pH 5.5, 100 mM NaCl, and 0.1% BSA) for 30 minutes at room temperature. Substrate is added to 400 micromolar in a total volume of 80 microliters containing 10 picomolar HIV-1 protease and the reaction is incubated for 1 hour at 30° C. The reaction is quenched with the addition of 120 microliters of 10% phosphoric acid. The product formation is determined after separation of product and substrate on a Zorbax Eclipse XDB-C18 column connected to an Agilent 1100 high performance liquid chromatography system with fluorescence detection (excitation 270 nanometer and emission 330 nanometer). Alternatively, the inhibitor is preincubated with enzyme and substrate as described above, but in a total volume of 20 microliters containing 20 picomolar HIV-1 protease and the reaction is incubated for 1 hour at 30° C. The reaction is quenched with the addition of 30 microliters of 1 micromolar indinavir (indinavir is also used as an internal standard), and the product formation is determined after separation of product and substrate on a Zorbax Eclipse XDB-C18 column connected to an API 4000 mass spectrometer (Applied Biosystems) with multiple reaction monitoring (transitions were 644.5/428.9 and 615.4/422.2 (M1/M3) for product and indinavir respectively). The extent of inhibition of the reaction is determined from the peak area of the products. HPLC of the products, independently synthesized, provided quantitation standards and confirmation of the product composition.
Protease Inhibition Assay (“Pepcleave”) data were collected based on the wild-type HIV-1 protease enzyme. The assay monitors the cleavage of a 8-mer peptide (VSQN[β-Nal]PIV) where the tyrosine at P1 position is replaced by β-Naphthyl-alanine. Upon cleavage of the peptide by HIV-1 protease, the product is separated from substrate by HPLC column and detected at Ex.=270 nm/Em=330 nm.

[2] = system: human immunodeficiency virus type 1; experiment: Acute Infection Assay (Spread); type: cell-based, HIV-1; conditions: Human immunodeficiency virus 1; 10% FBS; mean of at least two independent experiments; read-out: Spread IC95
Description: Acute Infection Assay (“Spread”) data were generated in 10% FBS, and according to the methods disclosed by J. P. Vacca et al, “L-735,524: An orally bioavailable human immunodeficiency virus type 1 protease inhibitor,” Proc. Nati. Acad. Sci. USA, Vol. 91, pp. 4096-4100 (April 1994).

[3] = wild-type HIV-1 protease, mean of at least two independent experiments, read-out: Pepcleave Enzyme inhibition IC50

Structure (SMILES)	IC50 [1] [nM]	IC95 [2] [nM]	IC50 [1, 3] [nM]
COC(=O)N[C@H](C(=O)Nc1ccccc1CC[C@@H](CO)N(Cc1cn(C)nc1C)S(=O)(=O)c1ccc2ncsc2c1)C(c1ccccc1)c1ccccc1 [Example 11, N-{2-[(3S)-3-{(1,3-benzothiazol-6-ylsulfonyl)[(1,3-dimethyl-1H-pyrazol-4-yl)methyl]amino}-4-hydroxybutyl]phenyl}-Nα-(methoxycarbonyl)-β-phenyl-L-phenylalaninamide]	0.05	683	–
[2H]C([2H])([2H])C([2H])([2H])C([2H])([2H])N([C@H](CO)CCc1ccccc1NC(=O)[C@@H](NC(=O)OC)C(c1ccccc1)c1ccccc1)S(=O)(=O)c1ccc2ncsc2c1 [Example 10, N-(2-{(3S)-3-[(1,3-benzothiazol-6-ylsulfonyl)(propyl-d7)amino]-4-hydroxybutyl}phenyl)-Nα-(methoxycarbonyl)-β-phenyl-L-phenylalaninamide]	0.7	1190	–
COC(=O)N[C@H](C(=O)Nc1ccccc1CC[C@@H](CO)N(CCC(C)C)S(=O)(=O)c1ccc(N)cc1)C(c1ccccc1)c1ccccc1 [Example 1, N-{2-[(3S)-3-{[(4-aminophenyl)sulfonyl](3-methylbutyl)amino}-4-hydroxybutyl]phenyl}-Nα-(methoxycarbonyl)-β-phenyl-L-phenylalaninamide]	–	74	0.02
COC(=O)N[C@H](C(=O)Nc1ccccc1CC[C@@H](CO)N(CC1CC(F)(F)C1)S(=O)(=O)c1ccc2ncsc2c1)C(c1ccccc1)c1ccccc1 [Example 12, N-{2-[(3S)-3-{(1,3-benzothiazol-6-ylsulfonyl)[(3,3-difluorocyclobutyl)methyl]amino}-4-hydroxybutyl]phenyl}-Nα-(methoxycarbonyl)-β-phenyl-L-phenylalaninamide]	–	1530	0.9
COC(=O)N[C@H](C(=O)Nc1ccccc1CC[C@@H](CO)N(Cc1cnoc1)S(=O)(=O)c1ccc(N)cc1)C(c1ccccc1)c1ccccc1 [Example 4]	0.2	838	–
COC(=O)N[C@H](C(=O)Nc1ccccc1CC[C@@H](CO)N(Cc1cn[nH]c1)S(=O)(=O)c1ccc(N)cc1)C(c1ccccc1)c1ccccc1 [Example 6, N-{2-[(3S)-3-{[(4-aminophenyl)sulfonyl](1H-pyrazol-4-ylmethyl)amino}-4-hydroxybutyl]phenyl}-Nα-(methoxycarbonyl)-β-phenyl-L-phenylalaninamide]	0.07	2340	–
COC(=O)N[C@H](C(=O)Nc1ccccc1CC[C@@H](CO)N(CCC(C)C)S(=O)(=O)c1ccc2ncsc2c1)C(c1ccccc1)c1ccccc1 [Example 9, N-(2-{(3S)-3-[(1,3-benzothiazol-6-ylsulfonyl)(3-methylbutyl)amino]-4-hydroxybutyl}phenyl)-Nα-(methoxycarbonyl)-β-phenyl-L-phenylalaninamide]	0.3	957	–
COC(=O)N[C@H](C(=O)Nc1cccc(C[C@@H](CO)N(CCC(C)C)S(=O)(=O)c2ccc(N)cc2)c1)C(c1ccccc1)c1ccccc1 [Example 31, N-{3-[(2S)-2-{[(4-aminophenyl)sulfonyl](3-methylbutyl)amino}-3-hydroxypropyl]phenyl}-Nα-(methoxycarbonyl)-β-phenyl-L-phenylalaninamide]	–	1260	3.7
COC(=O)N[C@H](C(=O)Nc1cccnc1CC[C@@H](CO)N(Cc1cncnc1C)S(=O)(=O)c1ccc2ncsc2c1)C(c1ccccc1)c1ccccc1 [Example 19, N-[2[(3S)-3-{(1,3-benzothiazol-6-ylsulfonyl)[(4-methylpyrimidin-5-yl)methyl]amino)-4-hydroxybutyl]pyridin-3-yl]-Nα-(methoxycarbonyl)-β-phenyl-L-phenylalaninamide]	–	766	4.2
COC(=O)N[C@H](C(=O)Nc1cccc(C[C@@H](CO)N(CCC(C)C)S(=O)(=O)c2ccc(CO)cc2)c1)C(c1ccccc1)c1ccccc1 [Example 32, N-(3-{(2S)-3-hydroxy-2-[{[4-(hydroxymethyl)phenyl]sulfonyl}(3-methylbutyl)amino]propyl}phenyl)-Nα-(methoxycarbonyl)-β-phenyl-L-phenylalaninamide]	2.4	1740	–
COC(=O)N[C@H](C(=O)Nc1ccccc1S(=O)(=O)C[C@@H](CO)N(CCC(C)C)S(=O)(=O)c1ccc(N)cc1)C(c1ccccc1)c1ccccc1 [Example 29, N-(2-{[(2R)-2-{[(4-aminophenyl)sulfonyl)(3-methylbutyl)amino}-3-hydroxypropyl]sulfonyl}phenyl)-Nα-(methoxycarbonyl)-β-phenyl-L-phenyl alaninamide]	–	1250	2.9
COC(=O)N[C@H](C(=O)Nc1cnccc1SC[C@@H](CO)N(Cc1cnoc1)S(=O)(=O)c1ccc2ncsc2c1)C(c1ccccc1)c1ccccc1 [Example 27, N-[4-({(2R)-2-[(1,3-benzothiazol-6-ylsulfonyl)(isoxazol-4-ylmethyl)amino]-3-hydroxypropyl}sulfanyl)pyridin-3-yl]-Nα-(methoxycarbonyl)-β-phenyl-L-phenylalaninamide]	–	1500	6.9
COC(=O)N[C@H](C(=O)Nc1cc(F)ccc1CC[C@@H](CO)N(CC1CC(F)(F)C1)S(=O)(=O)c1ccc2ncsc2c1)C(c1ccccc1)c1ccccc1 [Example 13, N-{2-[(3S)-3-{(1,3-benzothiazol-6-ylsulfonyl)[(3,3-difluorocyclobutyl)methyl]amino}-4-hydroxybutyl]-5-fluorophenyl}-Nα-(methoxycarbonyl)-β-phenyl-L-phenylalaninamide]	–	1180	1.9
[2H]C([2H])([2H])C([2H])(C([2H])([2H])[2H])C([2H])([2H])N([C@H](CO)CCc1ccccc1NC(=O)[C@@H](NC(=O)OC)C(c1ccccc1)c1ccccc1)S(=O)(=O)c1ccc2ncsc2c1 [Example 8, N-(2-{(3S)-3-[(1,3-benzothiazol-6-ylsulfonyl)(2-methylpropyl-d9)amino]-4-hydroxybutyl}phenyl)-Nα-(methoxycarbonyl)-β-phenyl-L-phenylalaninamide]	1.7	1550	–
COC(=O)N[C@H](C(=O)Nc1cnccc1CC[C@@H](CO)N(Cc1cncnc1C)S(=O)(=O)c1ccc2ncsc2c1)C(c1ccccc1)c1ccccc1 [Example 20, N-{4-[(3S)-3-{(1,3-benzothiazol-6-ylsulfonyl)[(4-methylpyrimidin-5-yl)methyl]amino}-4-hydroxybutyl]pyridin-3-yl}-Nα-(methoxycarbonyl)-β-phenyl-L-phenylalaninamide]	–	2200	3.5
[2H]C([2H])([2H])C([2H])(C([2H])([2H])[2H])C([2H])([2H])N([C@H](CO)CSc1ccncc1NC(=O)[C@@H](NC(=O)OC)C(c1ccccc1)c1ccccc1)S(=O)(=O)c1ccc2ncsc2c1 [Example 25, N-[4-({(2R)-2-[(1,3-benzothiazol-6-ylsulfonyl)(2-methylpropyld7)amino)-3-hydroxypropyl}sulfanyl)pyridin-3-yl]-Nα-(methoxycarbonyl)-β-phenyl-L-phenylalaninamide]	–	1150	4.8
